In patent publication US8501806B2, “Methods for preventing or reducing colon carcinogenesis” (Nogra Pharma Limited, priority 2008, dated 2013):

Experiments:
4T1 cells = experiment: CFSE cell proliferation assay, 4T1 cells; format: cell-based, BALB/c; conditions: FIG. 9; graded doses, 24 hours
Procedure: All reagents were from Sigma-Aldrich (Milan, Italy), unless specified. Compound 14 was dissolved as a 25 mM stock solution in culture medium. 4T1 cells, a 6-thioguanine-resistant cell line derived from a BALB/c mammary carcinoma which spontaneously metastasizes to both the lung and liver, were obtained by ATCC and maintained at 37° C. in a humidified atmosphere of 5% CO2 in Dulbecco's modified Eagle's Medium (DMEM) supplemented with 10% inactivated fetal bovine serum (FBS) and 1% penicillin-streptomycin. For cell growth assays, serum-starved 4T1 cells were labeled with carboxyfluorescein diacetate succinimidyl ester (CFSE) (Invitrogen, Milan Italy) at 37° C. for 30 minutes, and then treated with increasing doses of compound 14. After 24 hours, cells were incubated with 5 μg/ml of propidium iodide (PI) for 15 minutes, at 4° C. CFSE and/or PI-positive cells were determined by flow cytometry (Becton Dickinson, Milan, Italy)

[1] = tested on: colonic IEL (intra-epithelial lymphocytes); experiment: Proliferation of normal colonic intra-epithelial lymphocytes (anti-CD3/CD28); format: cell-based; conditions: FIG. 4A; anti-CD3/CD28, graded doses, 48 hours
[2] = tested on: colitis-associated colon cancer; experiment: AOM/DSS colitis-associated colon cancer; format: in vivo, Balb/c mice; conditions: i.p. 16 mg/kg/mouse every second day for 49 days
Procedure: Balb/c mice were given a first i.p. injection of AOM (10 mg/kg) on day O, Seven days after the AOM injection, the mice were given 2% DSS in the drinking water for 7 days. One week after the discontinuation of DSS administration, the mice were given a second i.p. injection of AOM (5 mg/kg). Then, 7 days after the second AOM injection, the mice were again given 2% DSS in the drinking water for 7 days. Two weeks later, the mice were randomly divided into two groups receiving i.p. injection of PBS or 16 mg/kg/mouse compound 14 every second day, for 49 days until sacrifice. (To rule out the possibility that compound 14 could interfere with the ongoing mucosal inflammation, treatment was started 2 weeks after the last DSS administration.) Mice were endoscopically screened, and neoplastic lesions were scored as previously described All mice were sacrificed at the end of the study, and colonic samples were used for histological analysis and isolating lamina propria mononuclear cells (LPMC). An aliquot of LPMC was assessed for the expression of CD4, CD8, and CD25 by flow-cytometry using the following antibodies (CD4: cat. 552051, BD Pharmigen, Milan, Italy; CD8: cat. 22150084S and CD25: cat. 22150253, Immunotools, Friesoythe, Germany), while the remaining LPMC were used for extracting RNA and assessing the expression of COX-2, TNFα, and IL-1β by real-time PCR. To this end, the following primers were used: COX-2: FWD: 5′-[…]-3′; REV: 5′-[…]-3′, TNFα: FWD: 5′-[…]-3′; REV: 5′-[…]-3, IL-1β: FWD: 5′-[…]-3′; REV: 5′-[…]-3.
Colonic sections were stained with hematoxylin and eosin (H&E). The degree of inflammation and the presence of neoplastic lesions were evaluated and graded by the same pathologist in a blinded fashion. Immunohistochemistry for PCNA was performed using a PCNA staining kit (ZYMED Laboratories, Carlsbad, Calif., U.S.A.) according to the manufacturer's instructions. […] A polypoidor flat lesion is seen in control and compound 14-treated mice respectively.

4T1-derived tumors = experiment: 4T1 syngeneic tumor model; format: in vivo, Balb/c mice; conditions: FIG. 10; daily subcutaneous or intraperitoneal 8 mg/kg/mouse, starting day 3
Procedure: Eight- to 10-week-old female Balb/c mice were used for the 4T1 syngeneic tumor model. 4T1 cells (1×10^5 cells in 300 μl PBS 1×) were injected subcutaneously (s.c.) into the flank of mice, whose fur was shaved and depilated. Three groups of 8 mice each were implanted with 4T1. The first group received daily s.c. 300 μl PBS (control), the remaining groups were injected daily with compound 14 (8 mg/kg/mouse) s.c. or intraperitoneally (i.p.). Both compound 14 and PBS were administered starting on day 3. Mice were monitored over the time for weight loss and sacrificed at day 14. Tumors were photographed, and excised, and their mass calculated according to the following formula: ½×(short diameter)×(long diameter)×(height).

SMILES: COc1ccc(N)cc1C(=O)NO [compound 14, 2-methoxy-5-amino-N-hydroxybenzamide]
- in vitro proliferation of 4T1 cells (4T1 cells): dose-dependently inhibited
- proliferation of normal colonic intra-epithelial lymphocytes [1]: did not affect
- multiplicity of neoplastic lesions (polypoid and flat) ([2]; FIG. 8C): significantly reduced both types of lesions
- PCNA staining in normal colonic mucosa [2]: no significant change
- PCNA staining of neoplastic lesions [2]: confirmed the anti-proliferative effect
- 4T1-derived tumor mass in comparison to controls (4T1-derived tumors): significant decrease
